Test results from patent US8293751B2, “1,2,3-trisubstituted aryl and heteroaryl derivatives as modulators of metabolism and the prophylaxis and treatment of disorders related thereto such as diabetes and hyperglycemia” (Arena Pharmaceuticals, Inc., priority 2003, dated 2012).
pIC50: −log10 of the molar value. “Also recorded” adds a separate entry of the source.

How the values were obtained:
[1] = molecular target: T1, RUP3 (Homo sapiens, UniProt Q8TDV5); assay: 96-Well Cyclic AMP Membrane Assay for RUP3 (Membrane Cyclase Assay); assay type: biochemical; settings: RUP3 membranes, cAMP Flashplate
T1 construct: seen in the listing only (N); seen in the listing only (C); expressed in transfected cells
T1 sequence (Q8TDV5 with tags, fused parts or gaps): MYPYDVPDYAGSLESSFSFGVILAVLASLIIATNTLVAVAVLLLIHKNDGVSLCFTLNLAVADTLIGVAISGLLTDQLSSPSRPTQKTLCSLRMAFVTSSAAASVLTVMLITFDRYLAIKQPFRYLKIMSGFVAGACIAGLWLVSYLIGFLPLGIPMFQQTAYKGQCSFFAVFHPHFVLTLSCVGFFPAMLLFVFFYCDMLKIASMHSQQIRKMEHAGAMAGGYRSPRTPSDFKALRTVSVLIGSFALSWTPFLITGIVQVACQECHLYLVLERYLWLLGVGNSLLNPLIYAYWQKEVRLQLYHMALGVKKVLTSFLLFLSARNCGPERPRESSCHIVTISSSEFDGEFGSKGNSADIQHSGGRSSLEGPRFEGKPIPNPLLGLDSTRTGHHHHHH
Experimental: 96-Well Cyclic AMP Membrane Assay for RUP3
Binding Buffer—filter through […] Nalgene filter and keep in refrigerator. All buffers and membranes should be kept cold (in ice bucket) while performing assay. • 20 mM Hepes, pH7.4 • 1 mM MgCl2 • 100 mM NaCl • 2× Regeneration Buffer (make in binding buffer): • 20 mM Phosphocreatine (1.02 gm/200 ml binding buffer) • 20 units Creatine phosphokinase (4 mg/200 ml) • 20 uM GTP (make up 10.46 mg/ml in binding buffer and add 200 ul/200 ml) • 0.2 mM ATP (22.04 mg/200 ml) • […] IBMX (44.4 mg IBMX dissolved in 1 ml 100% DMSO first and then add the entire amount to 200 ml of buffer).
Regeneration buffer can be aliquotted into 40-45 ml portions (in 50 ml sterile tubes) and kept frozen for up to 2 months. Simply put the tube in a beaker with room temperature water to thaw out the regeneration buffer on the day of the assay. […]
IC50s or EC50s are done in triplicate. […] The membranes are kept in ice all the time, and a polytron (Brinkmann polytron, model #PT-3100) is used (setting 6-7, for 15-20 seconds) to obtain a homogeneous membrane suspension.) Protein concentration is determined by Bradford protein assay kit using instructions given in the kit, using the standard supplied with the kit as a reference. […]

[2] = tested on: C57bl/6N mice; assay: Oral glucose tolerance test (oGTT) in mice; assay type: in vivo; settings: male C57bl/6N mice fasted 18 hours; p.o. 30 min before oral dextrose 5 g/kg; FIG. 5A
Experimental: A. Oral Glucose Tolerance Test (oGTT) (FIG. 5A).
Male C57bl/6N mice at age of 8 weeks were fasted for 18 hours and randomly grouped (n=11) to receive a RUP3 agonist (Compound B70) at indicated doses, or with control extendin-4 (ex-4, 1 μg/kg), a GLP-1 peptide analog known to stimulate glucose-dependent insulin secretion. Compound B70 was delivered orally via a gavage needle (p.o. volume at 100 μl). Control Ex-4 was delivered intraperitoneally. Thirty minutes after administration of test compound and control ex4, mice were administered orally with dextrose at 5 g/kg dose. Levels of blood glucose were determined at the indicated time points using Glucometer Elite XL (Bayer).

[3] = tested on: db mice (C57BL/KsOlahsd-Leprdb, diabetic); assay: Acute response of db mice to RUP3 agonist (blood glucose); assay type: in vivo; settings: male db mice; 60 mg/kg, oral gavage; FIG. 5B
Experimental: B. […] Male db mice (C57BL/KsOlahsd-Leprdb, diabetic, Harlan) at age of 10 weeks were randomly grouped (n=6) to receive vehicle (oral gavage), Compound B70 (60 mg/kg, oral gavage), or Ex-4 (1 μg/kg, intraperitoneally). After compound administration, food was removed and blood glucose levels were determined at indicated times as shown in FIG. 5B. Reduction in blood glucose at each time point was expressed as percentage of original glucose levels, averaged from six animals for each group.

O=[N+]([O-])c1c(Nc2ccc(-n3cncn3)cc2)ncnc1N1CCC(Sc2ccccn2)CC1 [Compound B70, {5-Nitro-6-[4-(pyridin-2-ylsulfanyl)-piperidin-1-yl]-pyrimidin-4-yl}-(4-[1,2,4]triazol-1-yl-phenyl)-amine]
pIC50 [1]: 6.89
blood glucose after glucose challenge (oGTT) [2]: lowered blood glucose in a dose-dependent manner; also recorded: in a dose-dependent manner on the lowering of blood glucose after glucose challenge
blood glucose levels compared to vehicle control [3]: significantly reduces glucose levels compared to vehicle control
